The values below come from patent US4183929A, “Tri-substituted triazines” (American Cyanamid Company, priority 1978, dated 1980).

One assay deals with T1, activated human C1 (Homo sapiens, UniProt P09871).
T1 construct: fluid-phase human C2 consumption with C4 present
The experiment in a line: Test, Code 026 (C1 inhibitor). The class given is biochemical. Conditions: for Cl 026 Wells: Table I, twofold serial dilution, higher well number indicates higher activity; for In Vitro Activity Complment Inhibiting Activity (Wells) Code 026: Table II. From the text:
(§1) An active inhibitor protects C2 from C1 and C4; (ii) Test, Code 035 (C3-C9 inhibitor) - This test determines the ability of the late components of human complement (C3-C9) to lyse EAC 142 in the presence of appropriate dilutions of the test compound. An active inhibitor protects EAC 142 from lysis by human C3-C9; (iii) Test, Code 036 (C-Shunt inhibitor) - In this test human erythrocytes rendered fragile are lysed in autologous serum via the shunt pathway activated by cobra venom factor in the presence of appropriate dilutions of the test compound. Inhibition of the shunt pathway results in failure of lysis; (iv) Forssman Vasculitis Test - Here, the well known complement dependent lesion, Forssman vasculitis, is produced in guinea pigs by intradermal injection of rabbit anti-Forssman antiserum. The lesion is measured in terms of diameter, edema and hemorrhage and the extent to which a combined index of these is inhibited by prior intraperitoneal injection of the test compound at 200 mg is then reported, unless otherwise stated; (v) Forssman Shock Test--Lethal shock is produced in guinea pigs by an i.v. injection of anti-Forssman antiserum and the harmonic mean death time of treated guinea pigs is compared with that of simultaneous controls; (vi) Complement Level Reduction Test - In this test, the above dosed guinea pigs, or others, are bled for serum and the complement level is determined in undiluted serum by the capillary tube method of U.S. Pat. No. 3,876,376 and compared to undosed control guinea pigs; and (vii) Cap 50 Test - Here, appropriate amounts of the test compound are added to a pool of guinea pig serum in vitro, after which the undiluted serum capillary tube assay referred to above is run. The concentration of compound inhibiting 50% is reported.

In assay [1] the test system is late components of human complement (C3-C9). The assay is described as follows: Test, Code 035 (C3-C9 inhibitor), lysis of EAC 142. The class given is biochemical. Conditions: Table I; twofold serial dilution.
Source text: as §1

A further assay concerns shunt pathway. The assay is described as follows: Test, Code 036 (C-Shunt inhibitor), lysis of human erythrocytes via cobra venom factor activated shunt pathway. In kind it is cell-based. Conditions: Table I; twofold serial dilution. From the text: An active inhibitor protects C2 from C1 and C4; (ii) Test, Code 035 (C3-C9 inhibitor) - This test determines the ability of the late components of human complement (C3-C9) to lyse EAC 142 in the presence of appropriate dilutions of the test compound. An active inhibitor protects EAC 142 from lysis by human C3-C9; (iii) Test, Code 036 (C-Shunt inhibitor) - In this test human erythrocytes rendered fragile are lysed in autologous serum via the shunt pathway activated by cobra venom factor in the presence of appropriate dilutions of the test compound. Inhibition of the shunt pathway results in failure of lysis; (iv) Forssman Vasculitis Test - Here, the well known complement dependent lesion, Forssman vasculitis, is produced in guinea pigs by intradermal injection of rabbit anti-Forssman antiserum. […]

The test system of assay [2] is citrated sheep plasma (CSP). The assay is described as follows: In vitro anti-coagulant activity (AC) test. Conditions: for AC Wells: Table I, twofold serial dilution, recalcified citrated sheep plasma; for In Vitro Activity Anti-Coagulant Activity (Wells) AC: Table II. In kind it is biochemical. The procedure:
The sheep RBC's, kept in suspension throughout the slotting incubation time, become enmeshed in the fibrin matrix if a clot forms. Upon centrifugation of the plate, untrapped RBC's form buttons, the sizes of which correspond to the degree of clot inhibition; this providing a measure of anti-coagulant activity (AC).

Assay [3] in a line: Intrinsic Therapeutic Index (ITI) from Code 026 and AC wells. Particulars: Table II; for Logarithmic Difference Expressed As Wells: Code 026 wells minus AC wells (base 2); for Intrinsic Therapeutic Index: antilogarithm (base 2) of the difference of Code 026 and AC wells. From the text:
The computation of an Intrinsic Therapeutic Index (ITI) was devised to correlate the results expressed in wells obtained in the in vitro Code 026 (C1 inhibitor) test and the in vitro anti-coagulant (AC) test into a meaningful value which would aid in the net evaluation of the activity of the compounds of this invention.
The ITI is thus a measure of the separation of anti-complement and anti-coagulant activities; the higher the numerical value the more therapeutically useful the separation of activities.

T1 sequence (P09871 16-688): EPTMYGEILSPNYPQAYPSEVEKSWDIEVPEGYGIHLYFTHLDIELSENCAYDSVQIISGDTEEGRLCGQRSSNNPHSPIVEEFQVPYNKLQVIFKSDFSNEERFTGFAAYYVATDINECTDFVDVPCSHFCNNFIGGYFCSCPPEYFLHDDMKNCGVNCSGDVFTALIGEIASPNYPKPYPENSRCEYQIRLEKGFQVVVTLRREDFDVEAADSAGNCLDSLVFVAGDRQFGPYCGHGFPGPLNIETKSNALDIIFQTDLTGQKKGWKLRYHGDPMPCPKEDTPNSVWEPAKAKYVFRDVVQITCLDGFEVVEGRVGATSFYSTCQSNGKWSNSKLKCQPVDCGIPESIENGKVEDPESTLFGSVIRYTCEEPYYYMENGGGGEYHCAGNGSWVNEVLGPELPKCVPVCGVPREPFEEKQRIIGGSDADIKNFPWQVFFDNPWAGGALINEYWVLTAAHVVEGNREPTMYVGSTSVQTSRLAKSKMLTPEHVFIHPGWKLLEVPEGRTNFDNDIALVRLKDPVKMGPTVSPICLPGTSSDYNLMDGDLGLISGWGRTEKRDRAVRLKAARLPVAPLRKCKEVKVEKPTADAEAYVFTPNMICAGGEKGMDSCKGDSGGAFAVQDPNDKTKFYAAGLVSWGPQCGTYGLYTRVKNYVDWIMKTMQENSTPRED
T1 sequence (P00736 18-705 partner): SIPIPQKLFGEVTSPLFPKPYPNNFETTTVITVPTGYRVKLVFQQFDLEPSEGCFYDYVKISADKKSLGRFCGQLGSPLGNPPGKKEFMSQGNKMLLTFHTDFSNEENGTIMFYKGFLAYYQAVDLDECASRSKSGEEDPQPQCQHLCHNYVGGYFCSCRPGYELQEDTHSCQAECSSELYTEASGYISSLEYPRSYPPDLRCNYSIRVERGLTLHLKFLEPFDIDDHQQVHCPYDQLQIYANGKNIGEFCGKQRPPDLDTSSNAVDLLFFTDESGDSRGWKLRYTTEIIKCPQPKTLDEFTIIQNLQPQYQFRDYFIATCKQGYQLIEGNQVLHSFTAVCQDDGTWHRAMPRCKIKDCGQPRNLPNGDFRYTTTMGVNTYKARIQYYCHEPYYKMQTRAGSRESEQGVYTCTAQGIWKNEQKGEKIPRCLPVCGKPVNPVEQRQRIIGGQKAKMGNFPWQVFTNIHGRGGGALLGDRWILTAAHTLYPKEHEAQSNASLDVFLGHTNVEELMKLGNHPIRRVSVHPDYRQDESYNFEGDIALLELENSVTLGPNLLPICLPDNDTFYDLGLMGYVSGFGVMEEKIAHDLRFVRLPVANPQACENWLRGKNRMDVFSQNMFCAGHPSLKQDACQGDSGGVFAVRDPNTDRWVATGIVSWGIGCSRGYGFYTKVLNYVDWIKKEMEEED
T1 sequence (P02745 23-245 partner): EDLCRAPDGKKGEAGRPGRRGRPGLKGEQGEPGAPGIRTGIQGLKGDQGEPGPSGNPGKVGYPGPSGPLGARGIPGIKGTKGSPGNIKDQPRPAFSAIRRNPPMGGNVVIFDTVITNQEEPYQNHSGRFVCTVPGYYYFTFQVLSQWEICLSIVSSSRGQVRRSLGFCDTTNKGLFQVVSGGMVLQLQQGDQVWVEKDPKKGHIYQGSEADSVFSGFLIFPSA
T1 sequence (P02746 28-253 partner): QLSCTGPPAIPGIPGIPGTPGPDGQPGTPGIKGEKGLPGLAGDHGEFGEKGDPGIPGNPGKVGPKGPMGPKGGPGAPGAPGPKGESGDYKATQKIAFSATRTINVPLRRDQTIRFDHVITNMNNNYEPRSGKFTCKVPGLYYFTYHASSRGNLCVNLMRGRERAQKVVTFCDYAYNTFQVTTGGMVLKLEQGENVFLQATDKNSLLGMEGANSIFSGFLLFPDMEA
T1 sequence (P02747 29-245 partner): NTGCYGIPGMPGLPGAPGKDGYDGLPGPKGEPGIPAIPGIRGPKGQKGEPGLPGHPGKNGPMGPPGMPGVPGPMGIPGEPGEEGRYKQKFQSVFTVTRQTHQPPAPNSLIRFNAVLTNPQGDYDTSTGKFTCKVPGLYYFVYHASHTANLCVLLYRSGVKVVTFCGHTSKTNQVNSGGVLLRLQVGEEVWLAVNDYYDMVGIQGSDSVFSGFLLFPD

Turning to `O=C(O)CN(CC(=O)O)c1nc(N(CC(=O)O)CC(=O)O)nc(N(CC(=O)O)CC(=O)O)n1` [(s-Triazine-2,4,6-triyltrinitrilo)hexaacetic acid], on activated human C1, the “Cl 026 Wells” value is “+3 Wells” and the “In Vitro Activity Complment Inhibiting Activity (Wells) Code 026” value is “+3 Wells”. For the same molecule, the “C-Late 035 Wells” value in assay [1] is given as “N”. For the same molecule, the “Shunt Inhibition 036 Wells” value in the assay with shunt pathway is “N”. Further, in assay [2], the “AC Wells” value is on record as -2 Wells and the “In Vitro Activity Anti-Coagulant Activity (Wells) AC” value is recorded as -2 Wells. Further, in assay [3], the “Logarithmic Difference Expressed As Wells” value is given as “+5 Wells” and the “Intrinsic Therapeutic Index” value is 32.
As to `O=C([O-])c1cc(Nc2nc(Cl)nc(Nc3cc(C(=O)[O-])cc(C(=O)[O-])c3)n2)cc(C(=O)[O-])c1.[Na+].[Na+].[Na+].[Na+]` [5,5'-[(6-Chloro-s-triazine-2,4-diyl)diimino]-diisophthalic acid tetrasodium salt], on activated human C1, the “Cl 026 Wells” value is on record as “+3 Wells” and the “In Vitro Activity Complment Inhibiting Activity (Wells) Code 026” value is “+3 Wells”. Besides, the “C-Late 035 Wells” value in assay [1] is given as “N”. Besides, the “Shunt Inhibition 036 Wells” value in the assay on shunt pathway is listed as “N”. For the same molecule, in assay [2], the “AC Wells” value is reported as less than -2 Wells and the “In Vitro Activity Anti-Coagulant Activity (Wells) AC” value is listed as -2 Wells. Further, in assay [3], the “Logarithmic Difference Expressed As Wells” value is “+5 Wells” and the “Intrinsic Therapeutic Index” value is given as 32.
`O=C([O-])c1cc(Nc2nc(Nc3cc(C(=O)[O-])cc(C(=O)[O-])c3)nc(Nc3cc(C(=O)[O-])cc(C(=O)[O-])c3)n2)cc(C(=O)[O-])c1.[Na+].[Na+].[Na+].[Na+].[Na+].[Na+]` [5,5',5"-(s-Triazine-2,4,6-triyltriimino)triisophthalic acid hexasodium salt]: in assay [1], the “C-Late 035 Wells” value is “N”. Besides, in assay [2], the “AC Wells” value is reported as -2 Wells and the “In Vitro Activity Anti-Coagulant Activity (Wells) AC” value is on record as -2 Wells.
